Test [1] deals with MOLT-4. Kind of test: Cell viability (CellTiter Glo), compressed perturbation pools with informed pool design, MAX-based deconvolution, MOLT-4.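 On all read-outs here: higher DRS means a larger drug effect.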 As to conditions: for DRS: MOLT-4, None (measured individually), informed pool design table; for DRS from MAX-based deconvolution: MOLT-4, Samples, 7 Pick 3 informed perturbation pools. The procedure:
(§1) Total cell viability was measured for each sample using an ATP-based luminescence assay (i.e., CellTiter Glo). Each cancer drug was then screened at multiple concentrations ranging from one nM to ten μM in order to generate a dose-response curve and calculate a DRS for each cancer cell line.
(§2) Each cancer drug was cultured with target cells individually. At the end of the screen, samples were either analyzed individually or compressed into pools for analysis. The library was compressed alphabetically into ten cohorts, each of which contained seven cancer drugs present in three out of the seven pools, as shown in Table VII. Said another way, the screening platform 210 generated a “7 pick 3” compressed library by assigning the cancer drugs among different pools. […] The library was also compressed into ten cohorts with pools designed based on information known about each cancer drug, as shown in Table VIII. After cell viability measurement and DRS calculation, the DRS of each cancer drug in the samples generated based on the pools were deconvoluted and compared to the DRS for each cancer drug measured individually.
(§3) In parallel to the exemplary sample compression screen covered in Table VII, perturbations were compressed into pools and then screened. The pools were designed using drug class as a feature with two compression rules (or simply “rules”). The first rule required that drugs from the same class be separated into different cohorts (i.e., mutually exclusive groups of pools). […] A benefit of compressing perturbations is the ability to measure additive, antagonistic, and synergistic effects between drugs in the same pool. However, these effects can negatively impact deconvolution of individual drug effects. Therefore, combinations of drugs for which evidence of clinical toxicity exists can be assigned to different pools in accordance with an informed pooling operation. As new preclinical or clinical evidence of toxic combinations becomes available, the rules implemented by the screening platform 210—and more specifically, its algorithm for compressing members of a library—can be updated accordingly.
(§4) In MAX-based deconvolution, an assumption of neutrality between the compressed perturbations is made. In other words, the perturbation with the largest effect is assumed to be masking the effects, if any, of the other perturbations in the pool. For SUM- and MAX-based deconvolution, qualitative deconvolution is first performed to rank the perturbations in each pool based on size of expected effect. Qualitative deconvolution, as described above, ranks the perturbations in a pool from largest effect size to smallest effect size. The ranking is based on the overlap of each perturbation's unique subset of pools with the highest and lowest measured pools. The perturbation with the largest effect is expected to be present in the pools with the highest measured signal or corresponding metric (e.g., DRS), while the perturbation with the smallest effect is expected to be present in the pools with the lowest measured signal or corresponding metric (e.g., DRS).
(§5) For MAX-based deconvolution, the highest ranked perturbation in the rank order is first assigned an effect size based on the pool with the lowest measured signal or corresponding metric (e.g., DRS) that it is present in. Said another way, the screening platform 210 can identify the highest ranked perturbation in the rank order and then assign an effect size based on the measured signal or corresponding metric (e.g., DRS) of the “weakest” pool in which the highest ranked perturbation is included. The screening platform 210 can repeat this step for the next highest ranked perturbation, and so on until the measurements for each pool have been assigned to one of the perturbations. The effects for the remaining perturbations can be assigned a value of zero, since it is assumed that their effect is masked by the perturbation with the largest effect in each pool.

Test [2] has as its system REH. Briefly: Cell viability (CellTiter Glo), library of cancer drugs, individual or sample compression with randomized (alphabetical) pools, REH. Format: cell-based. As to conditions: REH; for DRS: None (measured individually); for DRS from deconvolution: Samples, 7 Pick 3 randomized (alphabetical) sample pools. As for the experimental part: as §1, §2
(§6) In SUM-based deconvolution, an assumption of additivity is used to quantify the individual effects of each perturbation on each target. Additivity implies that each perturbation effect on each target is positively contributing to the overall effect measured for that pool. This is an accurate assumption for certain experiments, such as when targets or samples are compressed. When targets are pooled—or when samples containing different targets are pooled—the effect of each perturbation on each individual target is diluted. In other words, each perturbation has an isolated effect on a target in culture, and the sum total of the isolated effects are measured when pooled. Therefore, SUM-based deconvolution breaks down the sum total measured for a pool and assigns estimated fractional effects to each compressed perturbation or target in the pool. The screening platform 210 used SUM-based deconvolution for all target and sample compression experiments described above.

For test [3], the system named is MOLT-4. Kind of test: Cell viability (CellTiter Glo), library of cancer drugs, individual or sample compression with randomized (alphabetical) pools, MOLT-4. Format: cell-based. Conditions: for DRS: MOLT-4, None (measured individually); for DRS from deconvolution: MOLT-4, Samples, 7 Pick 3 randomized (alphabetical) sample pools. The procedure: as §1, §2, §6
For orientation: Cellular ATP, detected with luciferase, serves as a proxy for viable cell number.

The subject of test [4] is REH. Kind of test: Cell viability (CellTiter Glo), compressed perturbation pools with informed pool design, MAX-based deconvolution, REH.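 On all read-outs here: higher DRS means a larger drug effect.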 Conditions: REH; for DRS: None (measured individually), informed pool design table; for DRS from MAX-based deconvolution: Samples, 7 Pick 3 informed perturbation pools. The procedure:
as §1, §2, §3, §4, §5

For the compound `Cc1c(C(=O)Nc2ccc(N3C[C@@H](C)O[C@@H](C)C3)nc2)cccc1-c1ccc(OC(F)(F)F)cc1` [Sonidegib], the DRS in test [1] came out at 1.79; in test [2], 2.40; in test [3], 2.50; in test [4], 0.79. In addition, the “DRS from MAX-based deconvolution” value in test [1] was found to be 0.00; in test [4] it was 3.57. Besides, the figures for the DRS from deconvolution in test [2] and in test [3] were 2.42 and 2.47, respectively.
Regarding `CC(C)C[C@H](NC(=O)CNC(=O)c1cc(Cl)ccc1Cl)B(O)O` [Ixazomib], the DRS stood at 0.00 in test [1], 15.29 in test [2], 13.99 in test [3] and 0.00 in test [4]. Also, the “DRS from MAX-based deconvolution” value in test [1] and in test [4] was 0.00 throughout. The DRS from deconvolution was found to be 15.74 in test [2] and 14.23 in test [3].
On to `C=C1C[C@@H]2[C@H](CC[C@]3(C)C(=O)CC[C@@H]23)[C@@]2(C)C=CC(=O)C=C12` [Exemestane], for which the DRS turned out to be 1.04 in test [1], 0.00 in test [2], 0.00 in test [3] and 1.84 in test [4]. Further, the “DRS from MAX-based deconvolution” value in test [1] and in test [4] was 0.00 each time. For the same compound, the DRS from deconvolution in test [2] and in test [3] was 0.00 each time.
`Cc1cnc(Nc2ccc(OCCN3CCCC3)cc2)nc1Nc1cccc(S(=O)(=O)NC(C)(C)C)c1` [Fedratinib]: the DRS in test [1] turned out to be 2.70; in test [2], 4.94; in test [3], 4.84; in test [4], 8.20. For the same compound, the “DRS from MAX-based deconvolution” value was found to be 3.88 in test [1] and 9.03 in test [4]. Moreover, the DRS from deconvolution worked out at 5.00 in test [2] and 4.67 in test [3].
Turning to `CNC(=O)c1ccc(N2C(=S)N(c3ccc(C#N)c(C(F)(F)F)c3)C(=O)C2(C)C)cc1F` [Enzalutamide], the DRS is 25.00 in test [1], 0.00 in test [2], 0.00 in test [3] and 27.70 in test [4]. Also, the “DRS from MAX-based deconvolution” value in test [1] is 28.24; in test [4], 31.61. The DRS from deconvolution in test [2] and in test [3] was 0.00 throughout.
Take `CO[C@H]1C(=O)[C@]2(C)[C@@H](OC)C[C@H]3OC[C@@]3(OC(C)=O)[C@H]2[C@H](OC(=O)c2ccccc2)[C@]2(O)C[C@H](OC(=O)[C@H](O)[C@@H](NC(=O)OC(C)(C)C)c3ccccc3)C(C)=C1C2(C)C` [Cabazitaxel]: the DRS in test [1] amounted to 0.01; in test [2], 29.39; in test [3] it was 29.89; in test [4], 0.01. Moreover, the “DRS from MAX-based deconvolution” value in test [1] and in test [4] was 0.00 each time. Moreover, the figures for the DRS from deconvolution in test [2] and in test [3] were 29.52 and 30.06, respectively.
`N#CC[C@H](C1CCCC1)n1cc(-c2ncnc3[nH]ccc23)cn1` [Ruxolitinib]: the DRS in test [1] worked out at 0.00; in test [2], 0.00; in test [3], 1.60; in test [4], 0.60. The “DRS from MAX-based deconvolution” value in test [1] and in test [4] was 0.00 throughout. Moreover, the figures for the DRS from deconvolution in test [2] and in test [3] were 0.00 and 1.74, respectively.
With `N#Cc1ccc(C(c2ccc(C#N)cc2)n2cncn2)cc1` [Letrozole], the DRS in test [1] was 0.00; in test [2], 3.93; in test [3], 3.50; in test [4], 0.00. The “DRS from MAX-based deconvolution” value in test [1] and in test [4] was 0.00 each time. Besides, the DRS from deconvolution is recorded as 4.02 in test [2] and 3.47 in test [3].
With `Cc1cc(Nc2ncnc3ccc(NC4=NC(C)(C)CO4)cc23)ccc1Oc1ccn2ncnc2c1` [Tucatinib], the DRS in test [1] came to 0.80; in test [2], 0.30; in test [3], 0.00; in test [4], 0.91. Also, the “DRS from MAX-based deconvolution” value in test [1] and in test [4] was 0.00 each time. Moreover, the DRS from deconvolution is reported as 0.21 in test [2] and 0.00 in test [3].
For the compound `CS(=O)(=O)CCNCc1ccc(-c2ccc3ncnc(Nc4ccc(OCc5cccc(F)c5)c(Cl)c4)c3c2)o1` [Lapatinib], the DRS in test [1] came to 5.79; in test [2] it was 0.74; in test [3], 0.74; in test [4], 6.99. Moreover, the results for the DRS from deconvolution in test [2] and in test [3] were 0.81 and 0.71, respectively. Moreover, the “DRS from MAX-based deconvolution” value in test [4] is given as 8.02.
Consider `CNC(=O)c1cc(Oc2ccc(NC(=O)Nc3ccc(Cl)c(C(F)(F)F)c3)cc2)ccn1` [Sorafenib], for which the DRS in test [1] was 0.88; in test [2], 0.53; in test [3], 0.33; in test [4], 1.78. The “DRS from MAX-based deconvolution” value in test [1] and in test [4] was 0.00 each time. The values for the DRS from deconvolution in test [2] and in test [3] were 0.44 and 0.25, respectively.
Regarding `C=CC(=O)N1CCC[C@@H](n2nc(-c3ccc(Oc4ccccc4)cc3)c3c(N)ncnc32)C1` [Ibrutinib], the DRS turned out to be 2.35 in test [1], 0.95 in test [2], 2.35 in test [3] and 0.95 in test [4]. Further, the “DRS from MAX-based deconvolution” value in test [1] came out at 3.17; in test [4], 1.56. For the same compound, the figures for the DRS from deconvolution in test [2] and in test [3] were 0.96 and 2.50, respectively.
Take `Cc1cn(-c2cc(NC(=O)c3ccc(C)c(Nc4nccc(-c5cccnc5)n4)c3)cc(C(F)(F)F)c2)cn1` [Nilotinib]: the DRS in test [1] was determined as 0.00; in test [2] it was 2.85; in test [3], 3.95; in test [4] it was 0.00. For the same compound, the “DRS from MAX-based deconvolution” value in test [1] and in test [4] was 0.00 each time. The values for the DRS from deconvolution in test [2] and in test [3] were 2.97 and 3.88, respectively.
With `CCN(CC)CCNC(=O)c1c(C)[nH]c(/C=C2\C(=O)Nc3ccc(F)cc32)c1C` [Sunitinib], the DRS in test [1] came to 2.60; in test [2] it was 0.06; in test [3] it was 0.56; in test [4], 3.10. Moreover, the “DRS from MAX-based deconvolution” value in test [1] and in test [4] was 0.00 each time. Moreover, the DRS from deconvolution in test [2] turned out to be 0.00; in test [3] it was 0.50.
For `C=C(c1ccc(C(=O)O)cc1)c1cc2c(cc1C)C(C)(C)CCC2(C)C` [Bexarotene], the DRS in test [1] was determined as 4.84; in test [2] it was 1.00; in test [3], 7.00; in test [4], 4.94. The “DRS from MAX-based deconvolution” value came to 5.31 in test [1] and 5.97 in test [4]. Besides, the DRS from deconvolution in test [2] and in test [3] was 0.00 throughout.

(Values after US20260378560A1, “APPROACHES TO DESIGNING AND PERFORMING COMPRESSED BIOLOGICAL EXPERIMENTS AND SYSTEMS FOR IMPLEMENTING THE SAME” (EXVIVO LABS INC., priority 2023, published 2026).)
